Values after ≈ are worked out from the molar mass of the structure shown. Values joined by “and” are separate entries in the source; they are usually repeats but may differ in a detail not shown here. Identical values can stand only once.
Test system: newly emerged larvae of the blowfly, Lucilia sericata
Assay: treated paper/serum bioassay, contact and/or ingestion activity against newly emerged blowfly larvae
Assay type: in vivo
Settings: single compound
Procedure: Contact and/or ingestion activities of compounds against newly emerged larvae of the blowfly, Lucilia sericata, are tested using a treated paper/serum bioassay. In this assay, test compounds diluted to the required concentrations in acetone are applied to filter paper discs and allowed to dry. Bovine serum and newly emerged blowfly larvae are added to the discs and mortality assessed at 24 and 48 hours.

[1] = larval mortality assessed at 48 hours

Compound | Approximate LC50 24 hour (larval mortality assessed at 24 hours) | Approximate LC50 48 hour [1] | LC50 (Lucilia sericata, 48 h, larval mortality assessed at 48 hours, read-out: Approximate LC50 48 hour) [µg/mL]
moxidectin | 1.54 µg/mL and 0.85 µg/mL | 0.80 µg/mL and 0.63 µg/mL | 
CCOCn1c(-c2ccc(Cl)cc2)c(C#N)c(Br)c1C(F)(F)F [C, 4-bromo-2-(p-chlorophenyl)-1-(ethoxymethyl)-5-(trifluoromethyl)pyrrole-3-carbonitrile] |  | 4.69 µg/mL | 2.5 (≈ 6.13 µM)
